Assay results published in PMC10135569, “Does Enhanced Structural Maturity of hiPSC-Cardiomyocytes Better for the Detection of Drug-Induced Cardiotoxicity?” (Biomolecules, 2023).

Assays:
[1] = test system: hiPSC-CMs (iCell2 Cardiomyocytes) 2D monolayers; test: Membrane potential (action potential) recordings with FluoVolt voltage-sensitive dye on the CellOPTIQ platform; assay type: cell-based, human; details: for activity at 0.3 µM / activity at 1 µM / activity at 3 µM / activity at 0.1 µM: Homo sapiens, Cardiomyocyte, 0.5 h, 30 min, delta over DMSO 0.1%; for electrical activity of the monolayers at higher concentrations: FM and MM
Procedure, shortened: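 iCell2 hiPSC-CM monolayers (50,000 cells/well on fibronectin or Matrix Plus, days 5–6) were loaded with FluoVolt (1:1000, 20 min, 37 °C) and imaged at 37 °C with 470 nm excitation and 510–560 nm emission sampled at 10 kHz. Spontaneous action potentials were recorded for 10 s at baseline and 30 min after drug, with one of four concentrations per well (n = 8).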

[2] = test system: hiPSC-CMs (iCell2 Cardiomyocytes) 2D monolayers; test: Contractility measurements using video imaging (ContractilityTool / MUSCLEMOTION); assay type: cell-based, human; details: for activity at 0.3 µM / activity at 1 µM / activity at 3 µM / activity at 0.1 µM: Homo sapiens, Cardiomyocyte, 0.5 h, 30 min, delta over DMSO 0.1%
Procedure, shortened: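 Monolayers on fibronectin or Matrix Plus coating, tested on days 5–6 in serum-free medium. Four concentrations, one per well, n = 8, with vehicle control.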

[3] = listed in Supplementary Table S1; no reference given; cited from earlier work
[4] = FM monolayer, read-out: APD30 (%DD)
[5] = FM monolayer, read-out: APD90 (%DD)
[6] = FM monolayer, read-out: Trise (%DD)
[7] = MM monolayer, read-out: APD30 (%DD)
[8] = MM monolayer, read-out: APD90 (%DD)
[9] = MM monolayer, read-out: Trise (%DD)
[10] = both FM and MM monolayers, concentration not given
[11] = FM monolayer, read-out: CtAmp (%DD)
[12] = FM monolayer, read-out: CtD50 (%DD)
[13] = MM monolayer, read-out: CtAmp (%DD)
[14] = MM monolayer, read-out: CtD50 (%DD)
[15] = MM monolayer, read-out: CL (%DD)
[16] = read-out: APD30 (%DD), FM monolayer
[17] = read-out: APD90 (%DD), FM monolayer
[18] = read-out: CL (%DD), FM monolayer

With `C=C[C@H]1C[N@@]2CC[C@H]1C[C@@H]2[C@@H](O)c1ccnc2ccc(OC)cc12` [Quinidine] the activity at 0.3 µM [1, 4] was 105 ± 2.9%, the activity at 0.3 µM [1, 5] was 115 ± 2.5% and the activity at 0.3 µM [1, 6] was 103 ± 14%. The activity at 1 µM [1, 4] was 104 ± 1.4%, the activity at 1 µM [1, 5] was 122 ± 1.4% and the activity at 1 µM [1, 6] was 135 ± 8.3%. For the same molecule, the activity at 0.3 µM [1, 7] was 104 ± 1.4%, the activity at 0.3 µM [1, 8] was 108 ± 1.2% and the activity at 0.3 µM [1, 9] was 111 ± 15.7%. For the same molecule, the activity at 1 µM [1, 7] was 100 ± 1.2%, the activity at 1 µM [1, 8] was 115 ± 0.8% and the activity at 1 µM [1, 9] was 123 ± 15%. It also gave an activity at 3 µM [1, 7] of 103 ± 2.1%, an activity at 3 µM [1, 8] of 121 ± 1.2% and an activity at 3 µM [1, 9] of 188 ± 23.3%. For the same molecule, the “effect on AP rise time (Trise) (in words)” value [1, 10] was “increased”, the “effect on APD90 (in words)” value [1, 10] was “increased” and the “effect on cycle length (in words)” value [1, 10] was “increased”. The “electrical activity of the monolayers at higher concentrations” value [1] was “electrically quiescent”, the activity at 0.3 µM [2, 11] was 66 ± 15.3% and the activity at 0.3 µM [2, 12] was 111 ± 6.3%. For the same molecule, the activity at 1 µM [2, 11] was 162 ± 50.3%, the activity at 1 µM [2, 12] was 106 ± 1.8% and the activity at 0.3 µM [2, 13] was 118 ± 21.6%. It also gave an activity at 0.3 µM [2, 14] of 107 ± 2.7%, an activity at 1 µM [2, 13] of 99 ± 13.1% and an activity at 1 µM [2, 14] of 97 ± 2.5%. For the same molecule, the activity at 3 µM [2, 13] was 106 ± 11.4%, the activity at 3 µM [2, 14] was 105 ± 1.5% and the “Free Cmax” value [3] was 920 nM.

Work on `C[C@H]1O[C@@H](O[C@H]2[C@@H](O)C[C@H](O[C@H]3[C@@H](O)C[C@H](O[C@H]4CC[C@@]5(C)[C@H](CC[C@@H]6[C@@H]5C[C@@H](O)[C@]5(C)[C@@H](C7=CC(=O)OC7)CC[C@]65O)C4)O[C@@H]3C)O[C@@H]2C)C[C@H](O)[C@@H]1O` [Digoxin] yielded an activity at 0.1 µM [1, 6] of 100 ± 21.3%, an activity at 0.1 µM [1, 7] of 91 ± 1.2% and an activity at 0.1 µM [1, 8] of 101 ± 1.3%. The activity at 0.1 µM [1, 15] was 102 ± 0.4%, the activity at 0.1 µM [1, 9] was 127 ± 10.8% and the activity at 0.3 µM [1, 7] was 68 ± 2.5%. For the same molecule, the activity at 0.3 µM [1, 8] was 89 ± 1%, the activity at 0.3 µM [1, 15] was 100 ± 0.8% and the activity at 0.3 µM [1, 9] was 161 ± 38.2%. The activity at 0.1 µM [1, 16] was 84 ± 1.8%, the activity at 0.3 µM [1, 16] was 65 ± 2.8% and the activity at 0.1 µM [1, 17] was 95 ± 0.6%. The activity at 0.3 µM [1, 17] was 88 ± 2.1%, the activity at 0.1 µM [1, 18] was 98 ± 0.7% and the activity at 0.3 µM [1, 18] was 98 ± 0.9%. For the same molecule, the activity at 0.3 µM ([1]; read-out: Trise (%DD), FM monolayer) was 74 ± 9.2%, the “effect on APD (in words)” value ([1]; both groups) was “decreased” and the “electrical activity of the monolayers at higher concentrations” value [1] was “electrical quiescence”. It also gave an activity at 0.1 µM [2, 11] of 88 ± 6.1%, an activity at 0.1 µM [2, 12] of 90 ± 1.3% and an activity at 0.3 µM [2, 11] of 18 ± 11.1%. For the same molecule, the activity at 0.3 µM [2, 12] was 51 ± 15.9%, the activity at 0.1 µM [2, 13] was 127 ± 26.2% and the activity at 0.1 µM [2, 14] was 97 ± 2%. It also gave an activity at 0.3 µM [2, 13] of 12 ± 3.3%, an activity at 0.3 µM [2, 14] of 43 ± 1.8% and an activity at 1 µM [2, 13] of 13 ± 5.3%. For the same molecule, the activity at 1 µM [2, 14] was 40 ± 3.6%, the activity at 3 µM [2, 13] was 7 ± 1.9% and the activity at 3 µM [2, 14] was 43 ± 3.4%. For the same molecule, the “increasing the amplitude of contraction (positive inotropy)” value ([2]; both experimental groups) was “ineffective” and the “Free Cmax” value [3] was 2 nM.
